# According to patent US20080045512A1, “Benzoate salt of 4-(5-methyl-oxazolo[4,5-b]-pyridin-2-yl)-1,4-diazabicyclo[3.2.2]nonane” (Pfizer Inc., priority 2006, published 2008):
# Counter-ions that a name gives are not always drawn.
# Key:
# [1] = Comparison of salts of Formula I: physical properties tested and observed; type: physicochemical
# Procedure: Physical properties of various salts of Formula I were tested and observed.
# [2] = cited from earlier work
# [3] = cited from earlier work; remark: listed apart in the source
# [4] = Hygroscopicity by dynamic vapor sorption (isothermal moisture sorption analysis); type: physicochemical; details: for hygroscopicity (result in words): dynamic vapor sorption, 25° C.
# Procedure: Hygroscopicity was assessed using a dynamic vapor sorption technique in which an accurately weighed sample is subjected to progressively changing water vapor pressure while simultaneously recording the weight change. The experiment is conducted isothermally at 25° C.
# For 4-(5-methyloxazolo[4,5-b]pyridin-2-yl)-1,4-diazabicyclo[3.2.2]nonane benzoate Form A, less than 0.1% increase in weight was detected at 90±2% relative humidity during an isothermal (24.9±0.1° C.) moisture sorption analysis conducted from approximately 1% to 90% (±2%) humidity. Considering standard deviation, it is considered that increase in weight is less than 0.2%.
molecule,measurement,setting,value
fumarate,hygroscopicity (result in words),[1],undesirable hygroscopicity
L-lactate,hygroscopicity (result in words),[1],undesirable hygroscopicity
"O=C1Cc2cc(CCN3CCN(c4nsc5ccccc45)CC3)c(Cl)cc2N1 [Ziprasidone, 5-[2-[4-(1,2-benzisothiazol-3-yl)piperazin-1-yl]ethyl]-6-chloroindolin-2-one]",half-life,[2]; in vivo,6 to 7 h
same,Oral bioavailability,[2]; taken with food,approximately 60%
same,protein binding,[3],extensive
"Cc1ccc2oc(N3CCN4CCC3CC4)nc2n1 [benzoate salt of Formula I, 4-(5-methyloxazolo[4,5-b]pyridin-2-yl)-1,4-diazabicyclo[3.2.2]nonane benzoate]",increase in weight in moisture sorption analysis,"[4]; at 90±2% relative humidity, isothermal 24.9±0.1° C., from approximately 1% to 90% (±2%) humidity",less than 0.1%
same,hygroscopicity (result in words),[4],relatively non-hygroscopic
same,hygroscopicity (result in words),"[4]; listed as 4-(5-methyloxazolo[4,5-b]pyridin-2-yl)-1,4-diazabicyclo[3.2.2]nonane benzoate Fo",non-hygroscopic
